Measured values published in patent publication US11357850B2, “Methods for treating breast cancer using INOS-inhibitory compositions” (The Methodist Hospital, priority 2014, dated 2022).

Legend:
EMT-6 cells = settings: mouse, in vivo; cited from earlier work
C3L5 and C10 = settings: cited from earlier work
MDA-MB-231 xenografts [1] = test: Lung metastases-preventing study, MDA-MB-231 L/G xenografts; assay type: in vivo, mice
Experimental: For the lung metastases-preventing study, MDA-MB-231 L/G cells were implanted as described above. The mice were randomized and treatments started 48 hrs after cell injection (n=5/group): 1) Vehicle (saline, i.p.), 2) L-NAME (80 mg/kg, i.p., daily for 35 days). Previous injection of luciferin, lungs were removed and washed in cold DMEM+10% FBS+1% antibiotics/antimycotic. Then, lungs were incubated in cold DMEM media containing 50 μM luciferin for 10 min. This protocol avoids the time lapse between lung extraction and exposure to luciferin. Fluorescent cancer cells were detected with an IVIS-200 in vivo imaging system (Perkin Elmer, Inc., Santa Clara, Calif., USA).
(§1) Self-renewal and tumor-initiating capacity was determined by MSFE and limiting-dilution assays, respectively, in single cells isolated from tumor tissue. Briefly, breast tumor tissue was minced, digested in DMEM:F12 medium with 100 U/mL of collagenase type 3 (Worthington, Lakewood, N.J., USA) and 0.8 U/mL of dispase (Gibco, Carlsbad, Calif., USA) at 37° C. for 45 min. MSFE was assayed in isolated single cells as stated above. The limiting dilution assay (LDA) was performed injecting either […] isolated cells from tumor tissue in the mammary fat pad of SCID Beige mice (n=12/group). Flow cytometric analysis of CD44^+/CD24^−/low cell population was assayed using published methods.
iNOS inhibition reduces tumor growth, tumor initiating capacity and prevents lung metastases in mouse models of triple negative breast cancer. Based on the in vitro data, the inventor next investigated whether iNOS inhibition was able to prevent tumor initiation and metastasis of breast tumor cells in a mouse model of lung metastases. Daily i.p. injections of 80 mg/kg L-NAME were given to MDA-MB-231 xenograft-bearing mice for 35 days. […] Additionally, tumor-initiating capacity of CSC was assessed with a limiting dilution assay (LDA) by injecting single cells isolated from tumor tissue (5×10^5 or 1×10^5 cells) in the right mammary fat pad. All the animals of vehicle group (n=5) developed tumors whereas treatment with L-NAME yielded 3/5 tumors at 1.5 weeks with 5×10^5 cells.
The inventor then examined whether iNOS inhibition was able to suppress metastasis to lungs in TNBC xenografts model. The luciferase/GFP-based MDA-MB-231 (MDA-MB-231 L/G) xenograft mouse model mimics the metastatic process to the lungs in patients. In this model of lung metastasis, cells metastasize from the primary tumor to lungs in ˜35 days after implantation. MDA-MB-231 L/G cells were injected in the right mammary fat pad of SCID mice and 80 mg/kg L-NAME was given daily for 35 days.

SUM159 [2] = test: Cell proliferation assay (WST-1), iNOS inhibitors; assay type: cell-based, human; settings: highest concentration (4 mM), 96 hrs
Experimental: (§2) Cell Culture. Mesenchymal-like triple negative breast cancer cell lines, MDA-MB-231 and SUM159, were purchased from American Type Culture Collection and Asterand, respectively. […] Mammosphere forming efficiency (MSFE), cell proliferation and migration assays are detailed below. Cell culture and mammosphere forming efficiency assay. […] For mammosphere-forming efficiency (MSFE) assay, 2,000 (SUM159) and 5,000 (MDA-MB-231) cells/well were cultured in 0.5% methylcellulose (MethoCult H4100, StemCell Technologies) and MammoCult basal medium supplemented with 10% MammoCult proliferation supplement, 4 μg/mL heparin and 0.48 μg/mL hydrocortisone (StemCell Technologies, Vancouver, BC, CANADA). […] Primary MSFE was evaluated dividing mammosphere number by cell number. After trypsinization of primary MS, single cells were grown in 0.5% methylcellulose and mammosphere medium (as described above) in absence of treatment. Secondary MS were scanned, counted and secondary MSFE were assessed. For the mouse model of lung metastasis, MDA-MB-231 cells were transfected with a luciferase/GFP-based dual-reporter plasmid and stable clones (MDA-MB-231 L/G) selected with 1 mg/mL blasticidin (InvivoGen, San Diego, Calif., USA). […] Proliferation rate was determined by adding premixed WST-1 reagent (Clontech). After incubation at 37° C. for 3 hrs, absorbance was read at 450 nm (reference wavelength 690 nm).

MDA-MB-231 [3] = test: Cell proliferation assay (WST-1), iNOS inhibitors; assay type: cell-based, human; settings: highest concentration (4 mM), 96 hrs
Experimental: as §2

SUM159 [4] = test: Cell migration, wound healing assay; assay type: cell-based, human; settings: 96 hrs treatment, wound healing 12 hrs
Experimental: (§3) FIG. 18A and FIG. 18B show the migration of MDA-MB-231 and SUM159 cells was assessed by “wound healing” assay. Briefly, 3×10^5 cells were plated in a 6-well plate until confluence in growth medium. […] A “wound” was then created in the cell monolayer. Images were taken at 0 and 12 hrs. Wound-healing capacity was determined with the software Image J. Data were replicated in three independent experiments. Results were normalized to vehicle;
(§4) Cell migration capacity. Cell migration was determined with a “wound healing assay.” Briefly, 3×10^5 cells/well were grown in 6-well plates until confluence. […] To avoid an impact on cell proliferation, low serum medium was changed by regular growth medium in presence of inhibitors for 24 hrs (96 hrs total). A “wound” was then created in the cell monolayer with a 100-4, pipette tip. Images were taken at 0 hrs, and cells were allowed to heal the wound for 12 hrs. Wound-healing capacity was determined with the software Image J. Data were replicated in three independent experiments.

MDA-MB-231 [5] = test: Cell migration, wound healing assay; assay type: cell-based, human; settings: 96 hrs treatment, wound healing 12 hrs
Experimental: as §3, §4

HCC-70 = test: PD-L1 expression in TNBC cell line; assay type: cell-based, human
[6] = cited from earlier work
[7] = cited from earlier work; remark: listed apart in the source
[8] = LC-MS/MS quantification of methylarginine in plasma and tumor tissue; assay type: in vivo, mice
Experimental: Metabolite profiling by liquid chromatography-tandem mass spectrometry (LC-MS/MS). MDA-MB-231 and SUM159 xenograft tissue from animal studies (L-NMMA given daily) as well as plasma samples were prepared as previously described. L-NMMA (200 mg/kg) was orally administered by gavage to female SCID Beige mice (n=5). Blood was drawn before (baseline, 0 hrs) and after L-NMMA administration (0.5, 2, 12, 24 hrs). LC-MS/MS platform used for metabolite profiling was previously described. Ratiometric quantification of methylarginine (L-NMMA) and citrulline was determined as ion abundance levels in plasma and tumor tissue.

MDA-MB-231 xenografts [9] = test: MDA-MB-231 xenografts treated with L-NMMA, docetaxel, combination; assay type: in vivo, mice
Experimental: (§5) Animal Studies. Female SCID Beige mice (4-5 weeks old) (Harlan Laboratories, Houston, Tex., USA) were housed under standard laboratory conditions (22° C.; 12 hrs/12 hrs light/dark cycle and free access to food and water). Either MDA-MB-231 or SUM159 cells (3×10^6) were injected in the right mammary fat pad. Once the tumors reached 150-200 mm^3, the mice were randomized into different groups as follows (n=10/group): 1) Vehicle (saline, i.p.), 2) L-NMMA (either 80 mg/kg or 200 mg/kg, i.p., daily), 3) Docetaxel (20 mg/kg), 4) Combo (L-NMMA and docetaxel).
as §1
The role of L-NMMA was then investigated, either alone or in combination with docetaxel in a different TNBC mouse model. Docetaxel (20 mg/kg at days 0 and 21) and 200 mg/kg L-NMMA (daily) were given to MDA-MB-231 xenograft-bearing mice for 31 days.

MDA-MB-468 = test: PD-L1 expression in TNBC cell line; assay type: cell-based, human
SUM159 xenografts = SUM159 xenografts treated with L-NMMA, docetaxel, combination; assay type: in vivo, mice
Experimental: as §5, §1
To answer this question, daily injections of 80 mg/kg L-NMMA were first given to SUM159 xenograft-bearing mice alone or in combination with docetaxel (20 mg/kg). […] The inventor next analyzed the impact on CSC self-renewal by the MSFE assay.

SUM159 cells = test: Nitric oxide production (nitrate/nitrite fluorometric assay); assay type: cell-based, human; settings: nitrate+nitrite in supernatant, up to 24 hrs
Text: Nitric oxide production in SUM159 cells. […] Aliquots of cell culture supernatant were taken at 0, 0.5, 2, 6 and 24 hrs for nitrate+nitrite (total nitric oxide) production with the nitrate/nitrite fluorometric assay kit (Cayman Chemical) following manufacturer's instructions.

iNOS = iNOS (Homo sapiens, UniProt P35228); test: LC-MS/MS quantification of citrulline in xenograft tissue; assay type: in vivo, mice; settings: SUM159 xenograft tissue, 24 hrs after completion of treatment
Experimental: Ratiometric quantification of citrulline SUM159 xenograft tissue LC-MS/MS (Student's t-test). […] Results were normalized to vehicle. Data are presented as mean±SEM. ****p<0.0001, ***p<0.001, **p<0.01, *p<0.05; one-way ANOVA and Bonferroni's post-hoc test;
Metabolite profiling by liquid chromatography-tandem mass spectrometry (LC-MS/MS). MDA-MB-231 and SUM159 xenograft tissue from animal studies (L-NMMA given daily) as well as plasma samples were prepared as previously described. […] LC-MS/MS platform used for metabolite profiling was previously described. Ratiometric quantification of methylarginine (L-NMMA) and citrulline was determined as ion abundance levels in plasma and tumor tissue.

COC(=O)[C@@H](N)CCCNC(=N)N[N+](=O)[O-] [L-NAME, N^5-[imino(nitroamino)methyl]-L-ornithine methyl ester]
tumor growth and lung metastasis (EMT-6 cells): decrease tumor growth and lung metastasis | invasive and migrating potential (C3L5 and C10): inhibited the invasive and migrating potential | ex vivo imaging of lungs in presence of luciferin (lung metastasis) (MDA-MB-231 xenografts [1]; 80 mg/kg daily for 35 days): higher fluorescence in vehicle group compared to L-NAME group | MSFE of primary MS of cells isolated from tumor tissue (MDA-MB-231 xenografts [1]; 80 mg/kg i.p. daily for 35 days): significantly reduced | tumor growth (MDA-MB-231 xenografts [1]; 80 mg/kg i.p. daily for 35 days, p=0.001): significantly reduced tumor growth | secondary MSFE of cells isolated from tumor tissue (MDA-MB-231 xenografts [1]; 80 mg/kg i.p. daily, compared to vehicle group): diminished but not significantly | limiting dilution assay, tumors developed (MDA-MB-231 xenografts [1]; 1.5 weeks with 5×10^5 cells, vehicle all animals (n=5)): 3/5 | limiting dilution assay, tumors developed (MDA-MB-231 xenografts [1]; 2.5 weeks with 1×10^5 cells): 0/5

[H]/N=C(/NC)NCCC[C@H](N)C(=O)O [L-NMMA, N^G-monomethyl-L-arginine]
proliferation (SUM159 [2]): anti-proliferative activity | proliferation (MDA-MB-231 [3]): anti-proliferative activity | migration (SUM159 [4]; micromolar range): not consistent and less effective | migration (SUM159 [4]; millimolar range): reduction in migration capacity | migration (MDA-MB-231 [5]; micromolar range): not consistent and less effective | migration (MDA-MB-231 [5]; millimolar range): reduction in migration capacity | PD-L1 expression (HCC-70): increase the PD-L1 expression | tolerability ([6]; in vivo): well tolerated with few AEs other than transient (minutes) reversible hypertension | mortality ([6]; myocardial infarction complicated by refractory cardiogenic shock): no effect on mortality | time to normalization of blood pressure upon ceasing the infusion ([7]; 12 mg/kg): less than 5 min | transient increase in systolic blood pressure ([7]; 12 mg/kg): up to 25 mm Hg | safety of bolus injections ([7]; 3, 6, and 12 mg/kg prior to infusion of IL-2, n=3 per cohort): safe | blood pressure ([7]; 3 and 6 mg/kg): remained unchanged | clinically apparent side effects ([7]; 3 and 6 mg/kg): did not induce clinically apparent side effects | hematologic, liver, or renal abnormalities ([7]; human, in vivo): not associated with any hematologic, liver, or renal abnormalities | L-NMMA plasma levels ([8]; 200 mg/kg oral gavage, 0.5, 2, 12, 24 hrs): cleared rapidly | L-NMMA in tumor tissue ([8]; 24 hrs after completion of treatment): accumulates in the tumor tissue | limiting dilution assay, tumors (MDA-MB-231 xenografts [9]; 5 weeks with 5×10^4 cells, vehicle 12/12): 1/12 | tumor growth (MDA-MB-231 xenografts [9]; L-NMMA 200 mg/kg daily, docetaxel 20 mg/kg days 0 and 21, 31 days): reduced tumor growth | limiting dilution assay, tumors (MDA-MB-231 xenografts [9]; after six weeks, vehicle 6/12): 3/12 | primary MS of cells isolated from tumor tissue (MDA-MB-231 xenografts [9]; compared to vehicle and chemotherapy alone groups): less | proliferation rate by immunohistochemistry (Ki67) (MDA-MB-231 xenografts [9]; mouse, in vivo): lower proliferation rate | secondary MS of cells isolated from tumor tissue (MDA-MB-231 xenografts [9]; mouse, in vivo): reduce secondary MS | PD-L1 expression (MDA-MB-468): increase the PD-L1 expression | duration of elevation in BP (after the last injection of L-NMMA): transient and disappeared 24 hrs after the last injection | mean systolic pressure (oral L-NMMA 200 mg/kg, basal levels 120 mmHg): 147 mm Hg | limiting dilution assay, tumors (SUM159 xenografts; 7 weeks with 5×10^4 cells, vehicle 12/12): 4/12 | tumor growth (SUM159 xenografts; L-NMMA 80 mg/kg daily, alone or with docetaxel 20 mg/kg, after 10 days): no differential effect | tumor growth (SUM159 xenografts; L-NMMA daily dose increased to 200 mg/kg, alone or with docetaxel): efficiently blocked | tumor cell proliferation by immunohistochemistry (Ki67) (SUM159 xenografts; mouse, in vivo): Higher proliferating rate in vehicle and chemotherapy groups compared to L-NMMA and combination groups | limiting dilution assay, tumors (SUM159 xenografts; week nine with 2×10^4 cells, vehicle 7/12): 0/12 | total NO production (SUM159 cells): decrease in total NO production | conversion of L-arginine to L-citrulline and NO by iNOS (iNOS): inhibits the conversion of L-arginine to L-citrulline and NO by iNOS
